Activity calls are given as the source filed them.
Columns and labels:
[1] = Luminescence Cell-Based Dose Response HTS to Identify Inhibitors of 5'UTR Stem-Loop Driven Prion Protein mRNA Translation in H4 Neuroglioblastoma Cells. [Related pubchem assays: 1827 (Project Summary), 1813 (Primary HTS)]; format: functional
[2] = inhibitors of firefly luciferase expression or activity, dose response, H4 neuroglioma cells, luminescence (AID 1990); format: functional, cell-based
[3] = inhibitors of SNCA 5'UTR-driven reporter translation, confirmation, H4 neuroglioma cells, luminescence (AID 1988); format: functional, cell-based
Cytochrome P450 3A4 = Cytochrome P450 3A4 (Homo sapiens, UniProt P08684);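 also: CYP3A4 tested as one member of a cytochrome P450 panel screen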
[4] = biological target: T1, RNA-binding protein pos-1 (Caenorhabditis elegans, UniProt G5EF15); experiment: inhibitors of POS-1/mex-3 RNA binding, dose response, biochemical, fluorescence polarization (AID 1964);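 also: purified POS-1 fused to maltose binding protein made in E. coli; potency of compounds blocking POS-1 binding to fluorescent RNA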
T1 sequence (G5EF15 whole entry): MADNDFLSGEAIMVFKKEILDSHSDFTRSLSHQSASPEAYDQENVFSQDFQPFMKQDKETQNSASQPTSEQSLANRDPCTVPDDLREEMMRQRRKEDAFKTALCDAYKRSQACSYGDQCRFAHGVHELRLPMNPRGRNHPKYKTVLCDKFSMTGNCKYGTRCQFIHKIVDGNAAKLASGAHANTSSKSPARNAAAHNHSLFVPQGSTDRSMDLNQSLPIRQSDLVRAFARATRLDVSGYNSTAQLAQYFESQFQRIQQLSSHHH

[5] = biological target: T2, Zinc finger protein mex-5 (Caenorhabditis elegans, UniProt Q9XUB2); experiment: MEX-5/TCR-2 RNA interaction inhibitors, dose response, biochemical, C. elegans, fluorescence polarization (AID 1960)
T2 sequence (Q9XUB2 whole entry): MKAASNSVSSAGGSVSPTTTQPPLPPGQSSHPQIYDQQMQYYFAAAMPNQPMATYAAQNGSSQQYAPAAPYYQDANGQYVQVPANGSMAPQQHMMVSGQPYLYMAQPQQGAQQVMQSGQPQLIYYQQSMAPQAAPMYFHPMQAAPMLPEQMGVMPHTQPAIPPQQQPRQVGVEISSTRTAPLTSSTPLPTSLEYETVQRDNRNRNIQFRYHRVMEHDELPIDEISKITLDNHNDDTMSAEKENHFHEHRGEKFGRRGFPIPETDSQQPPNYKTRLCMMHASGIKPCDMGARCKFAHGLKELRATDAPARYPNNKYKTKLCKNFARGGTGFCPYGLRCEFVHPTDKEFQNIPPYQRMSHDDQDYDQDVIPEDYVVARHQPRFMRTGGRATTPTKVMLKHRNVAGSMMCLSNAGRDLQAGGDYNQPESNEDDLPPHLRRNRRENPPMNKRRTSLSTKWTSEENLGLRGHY

[6] = biological target: T3, Rac GTPase-activating protein 1 (Homo sapiens, UniProt Q9H0H5); experiment: MgcRacGAP GTPase-activating activity inhibitors, confirmation, biochemical, ADP Hunter fluorescence, primary and confirmatory (AID 624330); format: functional
T3 sequence (Q9H0H5 whole entry): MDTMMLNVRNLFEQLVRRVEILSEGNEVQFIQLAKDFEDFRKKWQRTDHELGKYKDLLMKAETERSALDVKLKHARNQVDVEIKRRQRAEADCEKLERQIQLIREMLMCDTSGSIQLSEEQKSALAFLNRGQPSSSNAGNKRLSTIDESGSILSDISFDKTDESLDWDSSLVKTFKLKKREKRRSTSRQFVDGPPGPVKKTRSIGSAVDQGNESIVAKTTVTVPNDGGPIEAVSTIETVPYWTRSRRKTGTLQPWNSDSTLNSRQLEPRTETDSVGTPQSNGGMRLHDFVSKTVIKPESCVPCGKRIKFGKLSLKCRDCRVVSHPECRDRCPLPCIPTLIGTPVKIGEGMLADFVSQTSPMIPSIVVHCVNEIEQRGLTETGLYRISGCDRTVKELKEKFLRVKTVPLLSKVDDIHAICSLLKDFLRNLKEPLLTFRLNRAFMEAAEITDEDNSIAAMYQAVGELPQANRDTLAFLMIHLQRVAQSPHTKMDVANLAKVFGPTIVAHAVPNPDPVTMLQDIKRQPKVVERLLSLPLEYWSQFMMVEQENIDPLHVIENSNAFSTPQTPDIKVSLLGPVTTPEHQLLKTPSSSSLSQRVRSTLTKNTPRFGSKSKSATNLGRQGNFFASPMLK

Cytochrome P450 2C9 = Cytochrome P450 2C9 (Homo sapiens, UniProt P11712)
[7] = Luminescence Cell-Based Dose Retest to Confirm Inhibitors of Cancer Stem Cells. [Related pubchem assays (depositor defined):AID2717, AID2721]; format: functional; details: Homo sapiens
Cytochrome P450 1A2 = biological target: T4, Cytochrome P450 1A2 (Homo sapiens, UniProt P05177);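 also: PubChem cytochrome P450 panel assay, CYP1A2 panel member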
T4 sequence (P05177 whole entry): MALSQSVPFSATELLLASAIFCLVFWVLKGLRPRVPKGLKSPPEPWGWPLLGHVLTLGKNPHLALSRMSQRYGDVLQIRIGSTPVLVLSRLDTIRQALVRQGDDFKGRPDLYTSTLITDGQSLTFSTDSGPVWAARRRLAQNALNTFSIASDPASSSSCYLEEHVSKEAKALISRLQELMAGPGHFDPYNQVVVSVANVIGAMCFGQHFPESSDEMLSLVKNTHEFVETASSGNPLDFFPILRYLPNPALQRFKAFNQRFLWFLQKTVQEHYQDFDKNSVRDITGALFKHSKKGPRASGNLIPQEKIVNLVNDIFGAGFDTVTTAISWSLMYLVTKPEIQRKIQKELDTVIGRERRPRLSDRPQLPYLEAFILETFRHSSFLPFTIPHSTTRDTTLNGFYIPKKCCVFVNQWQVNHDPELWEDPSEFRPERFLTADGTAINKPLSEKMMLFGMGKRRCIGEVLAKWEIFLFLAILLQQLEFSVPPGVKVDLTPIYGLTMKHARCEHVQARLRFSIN

H4 = experiment: Luminescence Cell-Based Dose Response HTS to Identify Activators of 5'UTR Stem-Loop Driven Prion Protein mRNA Translation in H4 Neuroglioblastoma Cells. [Related pubchem assays: 1829 (Project Summary), 1814 (Primary HTS)]; format: functional; details: Homo sapiens
Cytochrome P450 2C19 = Cytochrome P450 2C19 (Homo sapiens, UniProt P33261); experiment: Cytochrome panel assay with activity outcomes. Panel member name: p450-cyp2c19 Compounds with AC50 equal or less than 10 uM are considered active; format: functional; details: read-out: AC50
Cytochrome P450 2D6 = Cytochrome P450 2D6 (Homo sapiens, UniProt P10635);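 also: CYP2D6 member of a cytochrome P450 panel assay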
[8] = HEp-2 cell cytotoxicity, dose response, cytotoxicity control for RSV inhibitor project, HTS (AID 2410); format: functional; details: human respiratory syncytial virus
[9] = inhibitors of intracellular T. cruzi replication, confirmation, NIH3T3 host cells, beta-gal luminescence (AID 2044); format: functional, cell-based;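 also: intracellular parasites grown in NIH/3T3 mouse fibroblasts as host cells; luminescent beta-galactosidase reporter signal from transgenic T. cruzi replicating inside host cells; inhibitors lower the luminescence signal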
[10] = cytotoxicity toward NIH3T3 fibroblasts, dose response, counter-screen, cell-based, ATP luminescence, mouse fibroblasts (AID 2010); format: functional;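 also: cells exposed to compound for about 90 hours before reading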

Sequence of Cytochrome P450 3A4 (P08684 whole entry, the tested form may be a part): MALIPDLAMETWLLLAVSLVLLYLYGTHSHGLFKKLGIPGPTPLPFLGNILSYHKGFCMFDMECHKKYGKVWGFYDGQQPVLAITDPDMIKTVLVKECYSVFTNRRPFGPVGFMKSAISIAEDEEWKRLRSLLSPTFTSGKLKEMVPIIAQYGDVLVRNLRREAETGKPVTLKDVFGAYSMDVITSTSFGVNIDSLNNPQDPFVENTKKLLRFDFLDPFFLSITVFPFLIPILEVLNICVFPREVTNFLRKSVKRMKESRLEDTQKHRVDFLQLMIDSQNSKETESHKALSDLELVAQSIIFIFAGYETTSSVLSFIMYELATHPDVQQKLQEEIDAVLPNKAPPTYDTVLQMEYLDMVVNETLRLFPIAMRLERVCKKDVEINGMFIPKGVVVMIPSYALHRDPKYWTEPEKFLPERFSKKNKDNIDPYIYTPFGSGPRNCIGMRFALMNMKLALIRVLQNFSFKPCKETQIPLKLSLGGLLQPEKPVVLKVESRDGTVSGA
Sequence of Cytochrome P450 2C19 (P33261 whole entry): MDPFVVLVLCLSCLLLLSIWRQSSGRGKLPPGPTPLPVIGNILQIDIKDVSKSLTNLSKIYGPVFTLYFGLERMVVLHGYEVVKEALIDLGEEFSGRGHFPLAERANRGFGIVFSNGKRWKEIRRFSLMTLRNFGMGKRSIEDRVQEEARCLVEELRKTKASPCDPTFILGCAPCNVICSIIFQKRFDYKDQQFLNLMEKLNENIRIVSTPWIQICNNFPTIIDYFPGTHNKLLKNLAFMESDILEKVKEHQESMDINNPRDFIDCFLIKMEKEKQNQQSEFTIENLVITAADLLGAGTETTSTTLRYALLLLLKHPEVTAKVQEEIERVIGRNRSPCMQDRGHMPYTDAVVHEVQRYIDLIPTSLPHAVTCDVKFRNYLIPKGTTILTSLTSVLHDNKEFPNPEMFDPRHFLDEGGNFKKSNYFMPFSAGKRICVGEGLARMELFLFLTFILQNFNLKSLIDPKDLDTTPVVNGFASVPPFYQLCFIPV
Sequence of Cytochrome P450 2C9 (P11712 whole entry): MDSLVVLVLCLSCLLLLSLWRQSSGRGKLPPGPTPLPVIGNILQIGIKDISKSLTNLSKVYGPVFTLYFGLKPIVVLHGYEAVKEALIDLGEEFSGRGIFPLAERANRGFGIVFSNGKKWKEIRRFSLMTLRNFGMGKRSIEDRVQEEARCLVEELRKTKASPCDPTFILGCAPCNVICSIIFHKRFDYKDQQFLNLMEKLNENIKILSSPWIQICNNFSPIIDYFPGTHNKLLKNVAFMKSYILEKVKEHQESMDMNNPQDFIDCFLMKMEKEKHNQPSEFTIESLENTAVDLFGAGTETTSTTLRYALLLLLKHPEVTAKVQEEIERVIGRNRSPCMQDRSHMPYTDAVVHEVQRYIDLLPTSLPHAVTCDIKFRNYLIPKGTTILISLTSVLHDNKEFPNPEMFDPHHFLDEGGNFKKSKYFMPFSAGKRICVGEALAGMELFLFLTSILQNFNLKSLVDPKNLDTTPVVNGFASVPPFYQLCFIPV
Sequence of Cytochrome P450 2D6 (P10635 whole entry): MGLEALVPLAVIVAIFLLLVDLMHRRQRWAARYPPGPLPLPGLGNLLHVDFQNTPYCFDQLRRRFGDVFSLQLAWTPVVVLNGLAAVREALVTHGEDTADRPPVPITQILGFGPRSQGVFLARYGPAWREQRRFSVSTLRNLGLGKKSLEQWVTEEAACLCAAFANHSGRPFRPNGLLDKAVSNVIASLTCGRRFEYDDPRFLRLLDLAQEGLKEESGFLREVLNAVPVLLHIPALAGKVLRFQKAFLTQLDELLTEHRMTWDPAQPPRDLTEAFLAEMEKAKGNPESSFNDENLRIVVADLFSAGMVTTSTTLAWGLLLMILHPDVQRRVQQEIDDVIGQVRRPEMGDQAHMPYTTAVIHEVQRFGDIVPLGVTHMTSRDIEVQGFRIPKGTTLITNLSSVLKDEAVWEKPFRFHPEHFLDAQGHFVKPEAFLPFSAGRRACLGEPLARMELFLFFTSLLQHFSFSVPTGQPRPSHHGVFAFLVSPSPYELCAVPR

In the case of `O=c1c2[nH]cnc2n(-c2ccc(F)cc2)c(=O)n1Cc1ccccc1`, the EC50 [1] is reported as 39.3 µM (active), the EC50 [2] is reported as > 120 µM (not active) and the EC50 [3] is reported as > 120 µM (not active).
With `COc1ccc(/C=N/NC(=S)NC2CCS(=O)(=O)C2)cc1OC` (stereo unspecified) the AC50 (Cytochrome P450 3A4) was 22.4 µM (inconclusive).
With `O=C(/C=C/c1ccc(O)c(O)c1)OC(Cc1ccc(O)c(O)c1)C(=O)O` (stereo unspecified) the EC50 [4] was 13.6 µM (active), the EC50 [5] was 8.75 µM (active) and the IC50 [6] was 35 µM (active).
In the case of `Cc1ccc(C(=O)NC2CCCCCC2)cc1N1CCCC1=O`, the AC50 (Cytochrome P450 2C9) is reported as 25.1 µM (inconclusive) and the AC50 (Cytochrome P450 3A4) is reported as 25.1 µM (inconclusive).
In the case of `Nc1ccc(C(=O)n2c3ccccc3c3ccccc32)cc1`, the EC50 [1] is reported as 9.6 µM (active) and the EC50 [2] is reported as 9.05 µM (active).
For `Cc1cc(NCCCn2ccnc2)n2nc(C)c(-c3ccc(Cl)cc3)c2n1`, the AC50 [7] was 6.35 µM (active).
For `COc1ccc(/C=C\C(=O)Nc2ccccc2C(=O)O)cc1OC`, the AC50 (Cytochrome P450 2C9) was 15.8 µM (inconclusive), the AC50 (Cytochrome P450 3A4) was 39.8 µM (inconclusive) and the AC50 (Cytochrome P450 1A2) was 39.8 µM (inconclusive).
With `CCOC(=O)C1=C(C)N2C(=C(C#N)[C@@H]1c1ccc(C(=O)OC)cc1)SC[C@@]2(O)C(C)(C)C` the AC50 [7] was 0.33 µM (active).
For `Nc1nc(SCc2ccc([N+](=O)[O-])cc2)c2ncn([C@@H]3O[C@@H](CO)[C@@H](O)[C@H]3O)c2n1`, the AC50 (Cytochrome P450 3A4) was 15.8 µM (inconclusive).
With `COc1cc(/C=N/NC(=O)c2ccc(CN(C)S(=O)(=O)c3ccc(C)cc3)cc2)ccc1O` the AC50 [7] was 2.5 µM (active).
With `N#Cc1ccc(CN2CCC3(CC2)CCN(C(=O)c2ccncc2)CC3)cc1` the AC50 (Cytochrome P450 3A4) was 12.6 µM (inconclusive).
With `S=C(NCc1ccccc1)NCc1ccc(CNC(=S)NCc2ccccc2)cc1` the EC50 [1] was > 120 µM (not active), the EC50 [2] was > 120 µM (not active) and the EC50 [3] was > 120 µM (not active).
For `CCS(=O)(=O)c1nc(S(=O)(=O)c2ccc(C)cc2)c(N2CC(C)CC(C)C2)s1` (stereo unspecified), the EC50 [1] was > 120 µM (not active), the EC50 [2] was > 120 µM (not active) and the EC50 [3] was > 120 µM (not active).
In the case of `COc1ccc(-c2nc3cnc(N4CCNCC4)nc3n(CCC#N)c2=O)cc1`, the AC50 (Cytochrome P450 3A4) is reported as 12.6 µM (inconclusive) and the AC50 (Cytochrome P450 1A2) is reported as 15.8 µM (inconclusive).
With `CC(C)CCn1cnc2c(c1=O)c1nc3ccccc3nc1n2Cc1ccc2c(c1)OCO2` the EC50 [1] was > 120 µM (not active), the EC50 [2] was > 120 µM (not active) and the EC50 [3] was > 120 µM (not active).
With `CCC(C)[C@H](NC(=O)N1CCCC1)C(=O)O` (stereo partly specified) the EC50 [1] was > 120 µM (not active), the EC50 [2] was > 120 µM (not active) and the EC50 [3] was > 120 µM (not active).
With `CCc1c(C)nc(N)n2c(SCC(=O)Nc3ccccc3OC)nnc12` the EC50 [1] was > 120 µM (not active), the EC50 [2] was > 120 µM (not active) and the EC50 [3] was > 120 µM (not active).
For `CCOC(=O)c1ccc(-c2ccc(/C=N/NC(=O)c3cncc(Br)c3)o2)cc1`, the EC50 (H4) was 117 µM (active).
For `CCCOc1ccc(NC(=O)CC2C(=O)N(c3ccc(OCC)cc3)C(=S)N2C2CC2)cc1` (stereo unspecified), the EC50 [1] was > 120 µM (not active), the EC50 [2] was > 120 µM (not active) and the EC50 [3] was 12.1 µM (active).
For `O=C(NCCCN1CCCC1=O)Nc1ccc(F)c(Cl)c1`, the AC50 (Cytochrome P450 2C19) was 39.8 µM (inconclusive), the AC50 (Cytochrome P450 3A4) was 28.2 µM (inconclusive) and the AC50 (Cytochrome P450 1A2) was 22.4 µM (inconclusive).
With `Cc1c(C(=O)N/N=C/c2ccccc2)sc(=S)n1C` the AC50 (Cytochrome P450 2D6) was 0.01 µM (inconclusive), the AC50 (Cytochrome P450 2C19) was 25.1 µM (inconclusive) and the AC50 (Cytochrome P450 3A4) was 25.1 µM (inconclusive).
In the case of `COc1ccc(CN2CCN(Cc3cccn3-c3ncccn3)CC2CCO)c(C)c1C` (stereo unspecified), the EC50 [1] is reported as > 120 µM (not active), the EC50 [2] is reported as > 120 µM (not active) and the EC50 [3] is reported as 12.1 µM (active).
In the case of `CC(C)C(=O)Nc1cc2c(cc1C(=O)c1ccccc1)OCCO2`, the AC50 (Cytochrome P450 3A4) is reported as 22.4 µM (inconclusive).
For `C=CCC(C)(NCc1ccccc1)c1ccco1` (stereo unspecified), the AC50 (Cytochrome P450 2C9) was 0.0355 µM (inconclusive) and the AC50 (Cytochrome P450 3A4) was 15.8 µM (inconclusive).
In the case of `O=C(Nc1ccc(-c2csc(Nc3cccc(C(F)(F)F)c3)n2)cc1)c1ccccc1`, the CC50 [8] is reported as 17.2 µM (active), the EC50 [9] is reported as 0.859 µM (active) and the AC50 [7] is reported as 1.54 µM (active). For the same compound, the EC50 [10] was 7.93 µM (active).
In the case of `O=C(COCC(=O)Nc1cccc(C(F)(F)F)c1)Nc1cccc(C(F)(F)F)c1`, the AC50 [7] is reported as 5.16 µM (active).
For `Cc1cccc(N2CCN(C(=O)CC(NC(=O)c3ccccc3)c3ccccc3)CC2C)c1` (stereo unspecified), the EC50 [1] was > 120 µM (not active), the EC50 [2] was > 120 µM (not active) and the EC50 [3] was > 120 µM (not active).
With `CCOc1ccc(N(C(C)C(=O)NC(C)CC)S(C)(=O)=O)cc1` (stereo unspecified) the AC50 (Cytochrome P450 2C19) was 7.94 µM (inconclusive) and the AC50 (Cytochrome P450 3A4) was 14.1 µM (inconclusive).
For `O=C1C(Cc2ccccc2)NC(=S)N1c1ccccc1` (stereo unspecified), the AC50 (Cytochrome P450 3A4) was 2.24 µM (inconclusive) and the AC50 (Cytochrome P450 1A2) was 2.24 µM (inconclusive).
For `Cc1ccc(-c2csc(NC(=S)NC(=O)/C=C/c3ccco3)n2)cc1`, the AC50 (Cytochrome P450 2C9) was 0.282 µM (inconclusive) and the AC50 (Cytochrome P450 3A4) was 15.8 µM (inconclusive).
